Experimental data from patent publication US10653364B2, “Method for the continuous evaluation of the ventriculo-aortic coupling of at-risk patients by analysis of pressure-flow loops” (Assistance Publique—Hopitaux de Paris, priority 2014, dated 2020).

Test system: major neurosurgery patients
Test: Aortic Pressure/Flow loop parameters before (T0) and at peak effect (T1) of a vasoconstrictor bolus in anesthetized patients
Format: in vivo, human
Parameters: S1, Base / S2, Base / S3, Base / Alpha, Base / Beta, Base / Gamma, Base / Alpha, Variations (Diff) / Beta, Variations (Diff) / Gamma, Variations (Diff) / S1, Variations (Diff) / S2, Variations (Diff) / S3, Variations (Diff): unit not given here
Settings: for S2/Stot, Base / Alpha, Base / Beta, Base / Gamma, Base / S1, Base / S2, Base / S3, Base / S tot, Base: Base (T0, before injection); for Alpha, Base / Beta, Base / Gamma, Base: P/F loop angle; for S1, Base: P/F loop surface area S1; for S2, Base: P/F loop surface area S2; for S3, Base: P/F loop surface area S3; for Alpha, Peak / Beta, Peak / Gamma, Peak / S1, Peak / S2, Peak / S2/Stot, Peak / S3, Peak: Peak effect (T1) after peripheral venous bolus; for change in surface areas (Stot, S1, S2, S3) and angles (alpha, beta and gamma): before and after vasoconstriction, predominantly; for S tot, Base / S tot, Peak: total surface area of P/F loop; for S tot, Peak: Peak effect (T1) after peripheral venous bolus (9 mg Ephedrine, 50 μg Neophenylephrine or 5 μg Noradrenaline)
Source text: 1.1 Parameters Measured • The Pressure signal is collected in mmHg (FIG. 2), by means of a radial or femoral arterial catheter. • The esophageal Doppler signal giving the aortic flow in ml/s (FIG. 2) is collected via the Deltex® combi Q monitor. • The Pressure/Flow loop is constructed heart beat by heart beat with the simultaneous values of aortic flow on the x-axis and of pressure on the y-axis.
1.2 Description of the Various Parameters Resulting from the Aortic Pressure/Flow Loop: • the various specific points of the loop (FIG. 3-4): • A: diastolic pressure: the flow is zero before the beginning of systole. • B: maximum flow. • C: maximum pressure (systolic pressure). • D: dicrotic pressure: pressure at closing of the aortic valves: flow at 0, beginning of diastole. • The various specific straight lines of the loop: • straight line passing through points A and B: straight line between the beginning of the cycle and the point where the flow rate is at the maximum. • straight line passing through points A and C: straight line between the beginning of the cycle and the point where the pressure is at the maximum. • The various specific surface areas of the loop (FIG. 5): • Stot: total surface area of the Pressure/Flow loop. • S1: surface area between the lower part of the curve and the straight line (AB). • S2: surface area of the loop included between the two straight lines (AB) and (AC). • S3: surface area of the loop included between the straight line (AC) and the upper edge of the loop. • The various angles of the loop (FIG. 6): • Alpha: angle between the horizontal passing through point A and the straight line (AB). • Beta: angle between the horizontal passing through point A and the straight line (AC). • Gamma: angle between the two straight lines (AB) and (AC).
The study was carried out in the operating theatre on major neurosurgery patients, after agreement from the Ethics Committee (CE SRLF 11-356) and obtaining of informed consent. In addition to the standard monitoring, a device for simultaneous invasive measurement of arterial pressure and measurement of cardiac output by trans-esophageal Doppler (CombiQ®, Deltex Medical) was set out after induction of general anesthesia. Moreover, in order to have a reflection of arterial elastance and of arterial stiffness, an arterial tonometer (SphygmoCor®, AtCor Medical) was used to obtain the curve of central arterial pressure and the arterial stiffness indices. This device is currently the reference for quantifying arterial stiffness (represented by the augmentation index: Aix, FIG. 11) and monitors its evolution as a function of vasoactive therapies.
Patients having episodes of decrease in arterial pressure (decrease of 20% compared with the target pressure) and requiring the administration of a vasoconstrictor were included. Before each injection of […] (T0) and then at the time of the peak effect of the vasopressin (T1) the Pressure/Flow loops were plotted and the parameters derived from the loop were calculated. At the same time, using the SphygmoCor®, the augmentation index (Aix) and the arterial elastance (Ea) were recorded.
Depending on the anesthetists' choice, the patients received either 9 mg of Ephedrine, or 50 μg of Neophenylephrine, or 5 μg of Noradrenaline administered via a peripheral venous route.
Statistical Analysis: • search for the correlation between the Aix measured by SphygmoCor®, with the parameters of the P/F loop at T0 and at T1. • comparison of the evolution of the parameters of the P/F loop as a function of the use of Ephedrine, of Neosynephrine or of Noradrenaline. • comparison of the parameters of the P/F loop at T0 between the patients having cardiovascular risk factors and the patients not having risk factors. • study of the variations of the parameters of the P/F loop before and after vasoconstriction as a function of the patient's susceptibility to illness and of the type of vasoconstrictor used.

Structure (SMILES)	S2/Stot, Base	Alpha, Base	Beta, Base	Gamma, Base	S1, Base	S2, Base	S3, Base	Alpha, Peak	Beta, Peak	Gamma, Peak	S1, Peak	S2, Peak	S2/Stot, Peak	S3, Peak	change in surface areas (Stot, S1, S2, S3) and angles (alpha, beta and gamma)	S tot, Base	S tot, Peak	other results
CN[C@@H](C)[C@H](O)c1ccccc1 [Ephedrine]	34.2	7.4	10.9	1.8	1997	1709	1658.8	9.5	13.3	2.4	2722	2694.4	32.6	2242.5	significant increase	4889	6974	
NC[C@H](O)c1ccc(O)c(O)c1 [Noradrenaline]	26.4	8.5	11.5	2.2	1775	1215.9	1860.8	10.6	14.2	3.2	1963.2	1957.4	27.9	2311.5	significant increase	5291	6582	
CNC[C@H](O)c1cccc(O)c1 [Neosynephrine]	26.9	8.5	11.2	2.1	2028	1255.2	1851.1	10.6	16.2	5.4	2516	2624.7	31.2	2452.2	significant increase	5344	7412	increase of the beta and gamma angles (FIG. 13, for similar pressure increases induced by the vasoconstrictors): significantly more than Noradrenaline and Ephedrine; Alpha, Variations (Diff) (NEOSYNEPHRINE vs NORADRENALINE): −0.02; Beta, Variations (Diff) (NEOSYNEPHRINE vs NORADRENALINE): 2.55; Gamma, Variations (Diff) (NEOSYNEPHRINE vs NORADRENALINE): 2.59; S1, Variations (Diff) (NEOSYNEPHRINE vs NORADRENALINE): 266.01; S1/Stot %, Variations (Diff) (NEOSYNEPHRINE vs NORADRENALINE): −4.61%; S2, Variations (Diff) (NEOSYNEPHRINE vs NORADRENALINE): 615.97; S2/Stot %, Variations (Diff) (NEOSYNEPHRINE vs NORADRENALINE): 6.6%; S3, Variations (Diff) (NEOSYNEPHRINE vs NORADRENALINE): 221.27; S3/Stot %, Variations (Diff) (NEOSYNEPHRINE vs NORADRENALINE): −2.13%; S tot, Variations (Diff) (NEOSYNEPHRINE vs NORADRENALINE): 1072.27; increase with respect to Stot, beta, gamma and S2 (absolute and S2/Stot) (compared with the other two vasoconstrictors): greater increase than the other two vasoconstrictors; effect on ventricular-aortic coupling (reflected by greater increase in S2 and in beta and gamma angles): detrimental effect
